Test results: ChEMBL document CHEMBL5518181, “Studies of antibacterial activity (in vitro and in vivo) and mode of action for des-acyl tridecaptins (DATs)” (Eur J Med Chem, 2024)
In brackets after ≈: the same amount, converted by molar mass. One block for each compound: values may come before it.

Key:
[1] = test system: Klebsiella pneumoniae; assay: Antibacterial activity against wild-type Klebsiella pneumoniae ATCC 13883 assessed as inhibition of bacterial growth incubated for 18 hrs in presence of 50% heat inactivated human serum; format: functional; conditions: read-out: MIC100
[2] = Cytotoxicity against human HepG2 cells incubated for 40 hrs by celltiter-glo luminescent cell viability assay; format: toxicity, cell-based
[3] = test system: Pseudomonas aeruginosa; assay: Antibacterial activity against wild-type Pseudomonas aeruginosa PAO1 assessed as inhibition of bacterial growth incubated for 24 hrs; format: functional; conditions: read-out: MIC100
[4] = Hydrophobicity of compound assessed as %MeCN at peak elution by RP-HPLC analysis; format: physicochemical
[5] = Hemolytic activity in human red blood cells at 400 ug/ml incubated for 45 mins by spectrophotometric analysis relative to control; format: toxicity, cell-based, Erythrocyte; conditions: red blood cells (erythrocytes), at 400 µg/mL, read-out: Activity
[6] = test system: Klebsiella pneumoniae; assay: Antibacterial activity against wild-type Klebsiella pneumoniae ATCC 13883 assessed as inhibition of bacterial growth incubated for 18 hrs; format: functional; conditions: read-out: MIC100
[7] = test system: Staphylococcus aureus; assay: Antibacterial activity against […] assessed as inhibition of bacterial growth incubated for 18 hrs; format: functional; conditions: ATCC 29213, read-out: MIC100
[8] = test system: Escherichia coli; assay: Antibacterial activity against wild-type Escherichia coli ATCC 25922 assessed as inhibition of bacterial growth incubated for 18 hrs in presence of 50% heat inactivated human serum; format: functional; conditions: read-out: MIC100
[9] = test system: Escherichia coli; assay: Antibacterial activity against wild-type Escherichia coli ATCC 25922 assessed as inhibition of bacterial growth incubated for 18 hrs; format: functional; conditions: read-out: MIC100
[10] = test system: Acinetobacter baumannii; assay: Antibacterial activity against wild-type Acinetobacter baumannii ATCC 19606 assessed as inhibition of bacterial growth incubated for 20 hrs; format: functional; conditions: read-out: MIC100
[11] = test system: Escherichia coli; assay: Antibacterial activity against Escherichia coli ATCC 25922 harboring hldE knock-out assessed as inhibition of bacterial growth incubated for 18 hrs; format: functional; conditions: read-out: MIC100
[12] = test system: Escherichia coli; assay: Antibacterial activity against Escherichia coli ATCC 25922 harboring tolC knock-out assessed as inhibition of bacterial growth incubated for 18 hrs; format: functional; conditions: read-out: MIC100

Compound: CC[C@H](C)[C@@H](NC(=O)[C@@H](NC(=O)[C@H](C)NC(=O)[C@H](Cc1ccccc1)NC(=O)[C@@H](CCN)NC(=O)[C@H](CCN)NC(=O)[C@H](CO)NC(=O)[C@@H](Cc1c[nH]c2ccccc12)NC(=O)[C@@H](CO)NC(=O)CNC(=O)[C@@H](CCN)NC(=O)[C@H](NC(=O)[C@H](C)N)C(C)C)C(C)C)C(=O)N[C@@H](C)C(=O)O
MIC [1]: 32 µg/mL | IC50 at 40 h [2]: 67 µg/mL (≈ 47.6 µM) | MIC [3]: 64 µg/mL (≈ 45.5 µM) | MeCN percentage at peak elution [4]: 40.1% | hemolysis at 0.75 h, 400 ug/ml [5]: 0.3% | MIC [6]: 16 µg/mL (≈ 11.4 µM) | MIC [7]: > 64 µg/mL | MIC [8]: 4 µg/mL | MIC [9]: 8 µg/mL (≈ 5.68 µM) | MIC [10]: > 64 µg/mL | MIC [11]: 2 µg/mL (≈ 1.42 µM) | MIC [12]: 8 µg/mL (≈ 5.68 µM)

Compound: CC[C@@H](C)[C@@H](NC(=O)[C@@H](NC(=O)[C@H](CCC(=O)O)NC(=O)[C@H](Cc1ccccc1)NC(=O)[C@@H](CCN)NC(=O)[C@H](CCN)NC(=O)[C@H](CO)NC(=O)[C@@H](Cc1c[nH]c2ccccc12)NC(=O)[C@@H](CO)NC(=O)CNC(=O)[C@@H](CCN)NC(=O)[C@H](N)C(C)C)C(C)C)C(=O)N[C@@H](C)C(=O)O
MIC [1]: 8 µg/mL | IC50 at 40 h [2]: 91 µg/mL (≈ 65.3 µM) | MIC [3]: > 64 µg/mL | MeCN percentage at peak elution [4]: 39.5% | hemolysis at 0.75 h, 400 ug/ml [5]: 5.5% | MIC [6]: 64 µg/mL (≈ 45.9 µM) | MIC [7]: > 64 µg/mL | MIC [8]: 8 µg/mL | MIC [9]: 64 µg/mL (≈ 45.9 µM) | MIC [10]: 64 µg/mL (≈ 45.9 µM) | MIC [11]: 8 µg/mL (≈ 5.74 µM) | MIC [12]: 4 µg/mL (≈ 2.87 µM)

Compound: CC(C)[C@H](NC(=O)[C@H](CCC(=O)O)NC(=O)[C@H](Cc1ccccc1)NC(=O)[C@@H](CCN)NC(=O)[C@H](CCN)NC(=O)[C@H](CO)NC(=O)[C@@H](Cc1c[nH]c2ccccc12)NC(=O)[C@@H](CO)NC(=O)CNC(=O)[C@@H](CCN)NC(=O)[C@H](NC(=O)[C@H](C)N)C(C)C)C(=O)N[C@H](C)C(=O)N[C@@H](C)C(=O)O
MIC [1]: 16 µg/mL | IC50 at 40 h [2]: 47 µg/mL (≈ 33 µM) | MIC [3]: 64 µg/mL (≈ 45 µM) | MeCN percentage at peak elution [4]: 37.7% | hemolysis at 0.75 h, 400 ug/ml [5]: 5% | MIC [6]: 32 µg/mL (≈ 22.5 µM) | MIC [7]: > 64 µg/mL | MIC [8]: 32 µg/mL | MIC [9]: 64 µg/mL (≈ 45 µM) | MIC [10]: > 64 µg/mL | MIC [11]: 8 µg/mL (≈ 5.62 µM) | MIC [12]: 32 µg/mL (≈ 22.5 µM)

Compound: CC[C@H](C)[C@@H](NC(=O)[C@@H](NC(=O)[C@H](CCC(=O)O)NC(=O)[C@H](Cc1ccccc1)NC(=O)[C@@H](CCN)NC(=O)[C@H](CCN)NC(=O)[C@H](CO)NC(=O)[C@@H](Cc1c[nH]c2ccccc12)NC(=O)[C@@H](CO)NC(=O)CNC(=O)[C@@H](CCN)NC(=O)[C@H](NC(=O)[C@@H](C)N)C(C)C)C(C)C)C(=O)N[C@@H](C)C(=O)O
MIC [1]: 4 µg/mL | IC50 at 40 h [2]: 98 µg/mL (≈ 66.9 µM) | MIC [3]: 32 µg/mL (≈ 21.8 µM) | MeCN percentage at peak elution [4]: 39.6% | hemolysis at 0.75 h, 400 ug/ml [5]: 2.3% | MIC [6]: 2 µg/mL (≈ 1.36 µM) | MIC [7]: > 64 µg/mL | MIC [8]: 4 µg/mL | MIC [9]: 4 µg/mL (≈ 2.73 µM) | MIC [10]: > 64 µg/mL | MIC [11]: 2 µg/mL (≈ 1.36 µM) | MIC [12]: 4 µg/mL (≈ 2.73 µM)

Compound: CC[C@H](C)[C@@H](NC(=O)[C@@H](NC(=O)[C@H](CCC(=O)O)NC(=O)[C@H](Cc1ccccc1)NC(=O)[C@@H](C)NC(=O)[C@H](CCN)NC(=O)[C@H](CO)NC(=O)[C@@H](Cc1c[nH]c2ccccc12)NC(=O)[C@@H](CO)NC(=O)CNC(=O)[C@@H](CCN)NC(=O)[C@H](NC(=O)[C@H](C)N)C(C)C)C(C)C)C(=O)N[C@@H](C)C(=O)O
MIC [1]: 16 µg/mL | IC50 at 40 h [2]: 35 µg/mL (≈ 24.4 µM) | MIC [3]: > 64 µg/mL | MeCN percentage at peak elution [4]: 45.9% | hemolysis at 0.75 h, 400 ug/ml [5]: 4.5% | MIC [6]: 16 µg/mL (≈ 11.1 µM) | MIC [7]: > 64 µg/mL | MIC [8]: 8 µg/mL | MIC [9]: 16 µg/mL (≈ 11.1 µM) | MIC [10]: 64 µg/mL (≈ 44.5 µM) | MIC [11]: 8 µg/mL (≈ 5.57 µM) | MIC [12]: 8 µg/mL (≈ 5.57 µM)

Compound: CC[C@H](C)[C@@H](NC(=O)[C@@H](NC(=O)[C@H](CCC(=O)O)NC(=O)[C@H](Cc1ccc(-c2ccccc2)cc1)NC(=O)[C@@H](CCN)NC(=O)[C@H](CCN)NC(=O)[C@H](CO)NC(=O)[C@@H](Cc1c[nH]c2ccccc12)NC(=O)[C@@H](CO)NC(=O)CNC(=O)[C@@H](CCN)NC(=O)[C@H](N)C(C)C)C(C)C)C(=O)N[C@@H](C)C(=O)O
MIC [1]: 4 µg/mL | IC50 at 40 h [2]: 23 µg/mL (≈ 15.6 µM) | MIC [3]: 64 µg/mL (≈ 43.5 µM) | hemolysis at 0.75 h, 400 ug/ml [5]: 24.5% | MIC [6]: 4 µg/mL (≈ 2.72 µM) | MIC [7]: > 64 µg/mL | MIC [9]: 8 µg/mL (≈ 5.44 µM) | MIC [10]: > 64 µg/mL | MIC [11]: 2 µg/mL (≈ 1.36 µM) | MIC [12]: < 0.125 µg/mL

Compound: CC[C@H](C)[C@@H](NC(=O)[C@@H](NC(=O)[C@H](CCC(=O)O)NC(=O)[C@H](Cc1ccccc1)NC(=O)[C@@H](CCN)NC(=O)[C@H](CCN)NC(=O)[C@H](CO)NC(=O)[C@@H](Cc1c[nH]c2ccccc12)NC(=O)[C@@H](CO)NC(=O)[C@H](CC(=O)O)NC(=O)[C@@H](CCN)NC(=O)[C@H](N)C(C)C)C(C)C)C(=O)N[C@@H](C)C(=O)O
MIC [1]: > 64 µg/mL | IC50 at 40 h [2]: 13 µg/mL (≈ 8.95 µM) | MIC [3]: 64 µg/mL (≈ 44.1 µM) | MeCN percentage at peak elution [4]: 37.8% | hemolysis at 0.75 h, 400 ug/ml [5]: 0% | MIC [6]: > 64 µg/mL | MIC [7]: > 64 µg/mL | MIC [8]: 64 µg/mL | MIC [9]: > 64 µg/mL | MIC [10]: > 64 µg/mL

MIC [6]: 1 µg/mL (≈ 0.66 µM) | MIC [9]: 2 µg/mL (≈ 1.32 µM)
Compound: CC[C@H](C)[C@@H](NC(=O)[C@@H](NC(=O)[C@H](CCC(=O)O)NC(=O)[C@H](Cc1cccc2ccccc12)NC(=O)[C@@H](CCN)NC(=O)[C@H](CCN)NC(=O)[C@H](CO)NC(=O)[C@@H](Cc1c[nH]c2ccccc12)NC(=O)[C@@H](CO)NC(=O)CNC(=O)[C@@H](CCN)NC(=O)[C@H](NC(=O)[C@H](C)N)C(C)C)C(C)C)C(=O)N[C@@H](C)C(=O)O
IC50 at 40 h [2]: 83 µg/mL (≈ 54.8 µM) | hemolysis at 0.75 h, 400 ug/ml [5]: 52.9%

MIC [6]: > 64 µg/mL | MIC [9]: > 64 µg/mL
Compound: CC[C@H](C)[C@@H](NC(=O)[C@@H](NC(=O)[C@H](CCC(=O)O)NC(=O)[C@H](Cc1ccccc1)NC(=O)[C@@H](CCN)NC(=O)[C@H](CCN)NC(=O)[C@H](CO)NC(=O)[C@@H](Cc1c[nH]c2ccccc12)NC(=O)[C@@H](CO)NC(=O)CNC(=O)[C@@H](CN)NC(=O)[C@H](NC(=O)[C@H](C)N)C(C)C)C(C)C)C(=O)N[C@@H](C)C(=O)O
IC50 at 40 h [2]: > 170 µg/mL | hemolysis at 0.75 h, 400 ug/ml [5]: 0%

MIC [6]: 8 µg/mL (≈ 5.41 µM) | MIC [9]: 8 µg/mL (≈ 5.41 µM)
Compound: CC[C@H](C)[C@@H](NC(=O)[C@@H](NC(=O)[C@H](CCC(=O)O)NC(=O)[C@H](Cc1ccccc1)NC(=O)[C@@H](CCN)NC(=O)[C@H](CCN)NC(=O)[C@H](CO)NC(=O)[C@@H](Cc1c[nH]c2ccccc12)NC(=O)[C@@H](CO)NC(=O)CNC(=O)[C@@H](CCN)NC(=O)[C@H](NC(=O)[C@H](C)NC)C(C)C)C(C)C)C(=O)N[C@@H](C)C(=O)O
IC50 at 40 h [2]: > 70 µg/mL | hemolysis at 0.75 h, 400 ug/ml [5]: 5.3%

MIC [6]: 64 µg/mL (≈ 46.4 µM) | MIC [9]: 64 µg/mL (≈ 46.4 µM)
Compound: CC[C@H](C)[C@@H](NC(=O)[C@@H](NC(=O)[C@H](CC(=O)O)NC(=O)[C@H](Cc1ccccc1)NC(=O)[C@@H](CCN)NC(=O)[C@H](CCN)NC(=O)[C@H](CO)NC(=O)[C@@H](Cc1c[nH]c2ccccc12)NC(=O)[C@@H](CO)NC(=O)CNC(=O)[C@@H](CCN)NC(=O)[C@H](N)C(C)C)C(C)C)C(=O)N[C@@H](C)C(=O)O
IC50 at 40 h [2]: > 170 µg/mL | hemolysis at 0.75 h, 400 ug/ml [5]: 0%

MIC [6]: > 64 µg/mL | MIC [9]: > 64 µg/mL
Compound: CC[C@H](C)[C@@H](NC(=O)[C@@H](NC(=O)[C@H](CCC(=O)O)NC(=O)[C@H](Cc1ccccc1)NC(=O)[C@@H](CCN)NC(=O)[C@H](CCN)NC(=O)[C@H](C)NC(=O)[C@@H](Cc1c[nH]c2ccccc12)NC(=O)[C@@H](CO)NC(=O)CNC(=O)[C@@H](CCN)NC(=O)[C@H](N)C(C)C)C(C)C)C(=O)N[C@@H](C)C(=O)O
IC50 at 40 h [2]: > 170 µg/mL | hemolysis at 0.75 h, 400 ug/ml [5]: 0%
